Experimental findings from US8846699B2, “Quinazoline derivatives as a multiplex inhibitor and method for the preparation thereof” (Hanmi Pharm. Co., Ltd., priority 2005, dated 2014) are described below.

One assay has as its target EGFR1 (HER-1) (Homo sapiens (Human), UniProt P00533). The assay is described as follows: EGFR1 (HER-1) enzyme assay, fluorescence polarization. In kind it is biochemical. The note with it: 100 μM ATP, poly(Glu, Tyr) substrate.
The test system of assay [1] is breast cancer cell line, SK-Br3. The assay is described as follows: Inhibitory effect on growth of cancer cell line SK-Br3, SRB. In kind it is cell-based. The note with it: Homo sapiens, SK-BR-3, 72 h, overexpressed EGFR2 (HER-2). The gist of the method: (§1)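 Growth inhibition was measured by sulforhodamine-B staining (absorbance 570 nm) of TCA-fixed cells after 72 h compound exposure at 37 °C, 5% CO2. Test concentrations ran from 10 μM in 10-fold steps to 10^−4, with DMSO below 1%, in 10% FBS DMEM.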

In assay [2] the test system is Human Umbilical Vein Endothelial Cell (HUVEC). The assay can be described thus: Inhibitory effect on growth of human umbilical vein endothelial cell (HUVEC), MTS. The class given is cell-based. The conditions noted are these: Homo sapiens, 96 h, 10 ng/ml VEGF, absorbance 490 nm.
In assay [3] the test system is skin cancer cell line, A431. The assay is described as follows: Inhibitory effect on growth of cancer cell line A431, SRB. The class given is cell-based. The note with it: Homo sapiens, A-431, 72 h, overexpressed EGFR1 (HER-1). In a few lines:
as §1

A further assay deals with VEGFR2 (KDR) (Homo sapiens (Human), UniProt P35968). The assay can be described thus: VEGFR2 (KDR) enzyme assay, fluorescence polarization. The class given is biochemical. The note with it: 5 μM ATP, poly(Glu, Tyr) substrate. The gist of the method: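 Buffer: 20 mM HEPES pH 7.4 with 5 mM MgCl2, 2 mM MnCl2 and 50 μM Na3VO4. Compound (0.0001–10 μM) was premixed 10 min with VEGFR2 (200 ng/10 μl), then poly(Glu,Tyr) substrate (10 ng/ml) and 5 μM ATP were added for 1 h at room temperature. EDTA-quenched samples were read by FP after 30 min with antibody and tracer.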

Assay [4] concerns colon and rectal cancer cell line, SW-620. The assay is described as follows: Inhibitory effect on growth of cancer cell line SW-620, SRB. The class given is cell-based. The conditions noted are these: Homo sapiens, 72 h, not having overexpressed EGFR and EGFR2. The gist of the method: as §1

Structures are written as SMILES.

Chain of VEGFR2 (KDR) (P35968 20-1356): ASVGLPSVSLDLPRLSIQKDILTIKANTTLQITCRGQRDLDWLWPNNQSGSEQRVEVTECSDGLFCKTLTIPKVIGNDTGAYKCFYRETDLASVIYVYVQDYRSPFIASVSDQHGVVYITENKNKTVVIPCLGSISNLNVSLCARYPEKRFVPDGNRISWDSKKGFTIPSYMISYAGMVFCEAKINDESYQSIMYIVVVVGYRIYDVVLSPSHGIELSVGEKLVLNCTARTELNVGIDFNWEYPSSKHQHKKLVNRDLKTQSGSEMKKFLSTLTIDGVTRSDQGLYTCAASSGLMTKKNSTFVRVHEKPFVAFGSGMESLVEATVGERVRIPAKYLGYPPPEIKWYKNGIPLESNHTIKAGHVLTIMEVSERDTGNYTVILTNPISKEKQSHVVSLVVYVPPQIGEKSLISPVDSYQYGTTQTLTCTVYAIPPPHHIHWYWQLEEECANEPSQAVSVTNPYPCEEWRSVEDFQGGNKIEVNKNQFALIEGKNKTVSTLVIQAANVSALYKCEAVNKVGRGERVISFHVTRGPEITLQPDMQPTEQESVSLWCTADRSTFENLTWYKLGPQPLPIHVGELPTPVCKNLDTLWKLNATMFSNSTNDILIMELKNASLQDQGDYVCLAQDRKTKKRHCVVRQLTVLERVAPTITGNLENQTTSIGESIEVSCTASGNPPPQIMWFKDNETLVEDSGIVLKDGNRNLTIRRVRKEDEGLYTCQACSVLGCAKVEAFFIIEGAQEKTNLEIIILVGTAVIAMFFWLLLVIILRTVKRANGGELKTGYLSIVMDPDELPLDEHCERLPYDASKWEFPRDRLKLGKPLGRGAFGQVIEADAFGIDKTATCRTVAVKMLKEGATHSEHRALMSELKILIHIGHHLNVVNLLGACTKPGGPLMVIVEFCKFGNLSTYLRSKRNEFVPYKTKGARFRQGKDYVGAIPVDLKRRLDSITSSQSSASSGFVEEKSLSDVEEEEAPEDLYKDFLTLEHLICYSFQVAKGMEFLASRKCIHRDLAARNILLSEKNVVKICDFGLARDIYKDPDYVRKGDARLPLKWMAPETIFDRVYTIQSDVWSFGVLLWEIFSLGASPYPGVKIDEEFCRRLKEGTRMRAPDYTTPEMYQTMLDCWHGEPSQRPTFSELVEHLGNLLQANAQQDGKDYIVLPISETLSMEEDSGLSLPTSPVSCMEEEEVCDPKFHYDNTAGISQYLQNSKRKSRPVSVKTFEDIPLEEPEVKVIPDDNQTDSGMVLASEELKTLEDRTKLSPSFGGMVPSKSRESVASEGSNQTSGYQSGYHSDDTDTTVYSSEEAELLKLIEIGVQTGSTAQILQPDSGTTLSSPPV
Chain of EGFR1 (HER-1) (P00533 25-1210): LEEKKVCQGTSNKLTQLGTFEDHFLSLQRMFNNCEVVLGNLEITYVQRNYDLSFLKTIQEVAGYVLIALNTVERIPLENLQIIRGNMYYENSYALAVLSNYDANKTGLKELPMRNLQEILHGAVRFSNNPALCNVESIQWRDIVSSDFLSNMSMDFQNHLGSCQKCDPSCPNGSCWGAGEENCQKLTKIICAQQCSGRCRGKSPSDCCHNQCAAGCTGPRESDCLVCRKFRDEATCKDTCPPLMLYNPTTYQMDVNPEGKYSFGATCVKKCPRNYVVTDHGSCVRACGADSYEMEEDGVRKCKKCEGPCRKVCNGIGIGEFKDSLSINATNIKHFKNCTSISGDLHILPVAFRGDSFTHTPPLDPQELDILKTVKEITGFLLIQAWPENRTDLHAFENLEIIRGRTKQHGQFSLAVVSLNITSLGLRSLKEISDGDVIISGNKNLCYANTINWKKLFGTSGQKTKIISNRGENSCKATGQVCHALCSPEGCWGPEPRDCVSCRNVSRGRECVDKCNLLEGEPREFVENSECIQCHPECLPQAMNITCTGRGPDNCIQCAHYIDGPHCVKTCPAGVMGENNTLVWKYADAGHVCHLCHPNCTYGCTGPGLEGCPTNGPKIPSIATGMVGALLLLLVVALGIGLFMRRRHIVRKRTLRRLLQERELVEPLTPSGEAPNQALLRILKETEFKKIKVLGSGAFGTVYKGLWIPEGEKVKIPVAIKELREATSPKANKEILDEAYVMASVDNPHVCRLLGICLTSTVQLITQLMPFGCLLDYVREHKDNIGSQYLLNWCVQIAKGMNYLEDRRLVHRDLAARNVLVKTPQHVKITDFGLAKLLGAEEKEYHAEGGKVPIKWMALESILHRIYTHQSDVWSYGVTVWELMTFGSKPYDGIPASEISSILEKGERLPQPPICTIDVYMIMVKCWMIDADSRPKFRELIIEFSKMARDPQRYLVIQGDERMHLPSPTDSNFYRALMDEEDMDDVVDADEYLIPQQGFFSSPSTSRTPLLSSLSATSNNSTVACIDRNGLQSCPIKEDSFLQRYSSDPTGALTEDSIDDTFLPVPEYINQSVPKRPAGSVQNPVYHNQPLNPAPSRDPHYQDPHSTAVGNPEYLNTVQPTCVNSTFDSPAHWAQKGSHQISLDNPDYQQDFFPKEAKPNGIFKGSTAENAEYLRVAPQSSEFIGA

As to `C=CC(=O)Nc1cc2c(Nc3ccc(Br)c(F)c3F)ncnc2cc1OCCNC(=O)CCN1CCCCC1` [Example 126, N-{4-(4-bromo-2,3-difluoro-phenylamino)-7-[2-(3-piperidin-1-yl-propionylamino)-ethoxy]-quinazolin-6-yl}-acrylamide], the IC50 is 894 nM against EGFR1 (HER-1); 1370 nM in assay [1]; 286 nM in assay [2]; 1250 nM in assay [3]; 140 nM at VEGFR2 (KDR); 7.53 µM in assay [4].
In the case of `C=CC(=O)Nc1cc2c(Nc3ccc(Cl)nc3)ncnc2cc1OCCNC(C)=O` [Example 128, N-[7-(2-acetylamino-ethoxy)-4-(6-chloro-pyridin-3-ylamino)-quinazolin-6-yl]-acrylamide], the IC50 against EGFR1 (HER-1) amounted to 65 nM; in assay [1], 95 nM; in assay [2] it was 945 nM; in assay [3] it was 68 nM; at VEGFR2 (KDR), 823 nM; in assay [4] it was 10 µM.
Take `C=CC(=O)Nc1cc2c(Nc3cc(OC)c(Cl)cc3F)ncnc2cc1OCCNC(C)=O` [Example 129, N-[7-(2-acetylamino-ethoxy)-4-(4-chloro-2-fluoro-5-methoxy-phenylamino)-quinazolin-6-yl]-acrylamide]: the IC50 against EGFR1 (HER-1) was found to be 80 nM; in assay [1], 106 nM; in assay [2] it was 350 nM; in assay [3] it was 82 nM; against VEGFR2 (KDR), 357 nM; in assay [4], 0.721 µM.
As to `C=CC(=O)Nc1cc2c(Nc3ccc(OCc4cccnc4)c(Cl)c3)ncnc2cc1OCCNC(C)=O` [Example 130, N-{7-(2-acetylamino-ethoxy)-4-[3-chloro-4-(pyridin-3-ylmethoxy)-phenylamino]-quinazolin-6-yl}-acrylamide], the IC50 at EGFR1 (HER-1) was found to be 796 nM; in assay [1], 987 nM; in assay [2], 964 nM; in assay [3], 789 nM; on VEGFR2 (KDR), 853 nM; in assay [4], 5.53 µM.
On to `C=CC(=O)Nc1cc2c(Nc3cc(Cl)c(Br)cc3F)ncnc2cc1OCCNC(C)=O` [Example 133, N-[7-(2-acetylamino-ethoxy)-4-(4-bromo-5-chloro-2-fluoro-phenylamino)-quinazolin-6-yl]-acrylamide], for which the IC50 on EGFR1 (HER-1) amounted to 15 nM; in assay [1], 64 nM; in assay [2] it was 429 nM; in assay [3] it was 17 nM; at VEGFR2 (KDR), 419 nM; in assay [4], 2.32 µM.
As for `C=CC(=O)Nc1cc2c(Nc3cc(Cl)c(Br)cc3F)ncnc2cc1OCCNC(=O)CC` [Example 134, N-[4-(4-bromo-5-chloro-2-fluoro-phenylamino)-7-(2-propionylamino-ethoxy)-quinazolin-6-yl]-acrylamide], the IC50 on EGFR1 (HER-1) is 13 nM; in assay [1], 62 nM; in assay [2], 1060 nM; in assay [3], 18 nM; against VEGFR2 (KDR), 172 nM; in assay [4], 9.59 µM.
In the case of `C=CC(=O)Nc1cc2c(Nc3cc(Cl)c(Br)cc3F)ncnc2cc1OCCNC(=O)CN(C)C` [Example 135, N-{4-(4-bromo-5-chloro-2-fluoro-phenylamino)-7-[2-(2-dimethylamino-acetylamino)-ethoxy]-quinazolin-6-yl}-acrylamide], the IC50 against EGFR1 (HER-1) came to 9 nM; in assay [1], 42 nM; in assay [2], 1310 nM; in assay [3] it was 11 nM; on VEGFR2 (KDR) it was 784 nM; in assay [4] it was 2.43 µM.
With `C=CC(=O)Nc1cc2c(Nc3cc(Cl)c(Cl)cc3F)ncnc2cc1OCCN(C)C` [Example 136, N-[4-(4,5-dichloro-2-fluoro-phenylamino)-7-(2-dimethylamino-ethoxy)-quinazolin-6-yl]-acrylamide], the IC50 at EGFR1 (HER-1) was found to be 321 nM; in assay [1], 181 nM; in assay [2] it was 923 nM; in assay [3], 343 nM; on VEGFR2 (KDR), 856 nM; in assay [4], 2.94 µM.
